The values below come from US11535872B2, “Microbial strains and uses thereof” (priority 2017, dated 2022).

Read-outs that look alike come from different tables or passages of the source.

Holding throughout (assay type): cell-based, Candida tropicalis
Assay [1] relates to ΔΔXyl2. Conditions: YNB media; for starting xylose attenuated/bioconverted by ΔΔXyl2 with co-substrate: binary mixture of xylose and co-substrate.
The subject of assay [2] is ΔΔXyl2. Conditions: WSH; for starting xylose converted by ΔΔXyl2 with co-substrate: maltose value by 72 hr.
The test system of a further assay is Y6604 (NCYC 4190). In words: Xylose utilisation of Y6604 in the presence of increased inhibitor concentrations. Conditions: high or increasing inhibitor concentrations, minimal media, shake flasks. The procedure: FIG. 4 show graphs illustrating xylose utilisation profiles of Y6604 (NCYC 4190) in the presence of increased inhibitor concentrations. Graphs A, B, C, D, E and F represent strain performance in the presence of increasing concentrations of vanillin (VAN), transcinnamic acid (TRANSC), hydroxyl-benzaldehyde (HBA), syringaldehyde (S), furfural (F) and hydroxyl-methyl furfural (HMF) respectively. Indicated values in the legend represent concentrations in mg/100 mL. Xylose values are the mean of two replicates in minimal media in shake flasks;
Strain Y6604 (NCYC 4190) was compared with other xylose-utilizing isolates from the gut of click beetle to assess its inhibitor tolerance and xylose to xylitol conversion. […] Despite slower Y6604 (NCYC 4190) growth in corn stover hydrolysate, xylose consumption and subsequent xylitol production was largely unaffected when compared to other isolates (FIG. 2 A, B) and increased amounts of the sugar alcohol at a comparatively higher rate of production were apparent in hydrolysates obtained from Miscanthus (FIG. 2 C, D) and wheat straw (FIG. 2 E, F). Phylogenetic analysis of the D1/D2 domain confirmed strain identity to be Candida tropiclis (FIG. 3). Having observed the enhanced efficacy of Y6604 (NCYC 4190) in hydrolysates with high inhibitor loadings, the isolate's tolerance threshold to common inhibitors by measuring xylose uptake rates (FIG. 4) was then assessed.

For the compound `OC[C@H]1O[C@H](O[C@H]2[C@H](O)[C@@H](O)C(O)O[C@@H]2CO)[C@H](O)[C@@H](O)[C@@H]1O` (mixture of isomers) [maltose], in the assay with ΔΔXyl2 [1], the “rate of xylose conversion by ΔΔXyl2 with co-substrate” value (“rate of xylose conversion by ΔΔXyl2” below) came to 0.5 g xylose per hr and the “starting xylose attenuated/bioconverted by ΔΔXyl2 with co-substrate” value is on record as 70%. For the same compound, in the assay with ΔΔXyl2 [2], the “rate of xylose conversion by ΔΔXyl2” value was 0.78 g/h and the “starting xylose converted by ΔΔXyl2 with co-substrate” value (“starting xylose converted by ΔΔXyl2” for short) is “more than 95%”. As for `O=Cc1ccc(CO)o1` [HMF, hydroxyl-methyl furfural], in the assay with Y6604 (NCYC 4190), the “effect on xylose utilisation/uptake” value is “enhance pentose uptake”.

Regarding `O=C(CO)[C@@H](O)[C@H](O)[C@H](O)CO` [fructose], in the assay on ΔΔXyl2 [1], the “rate of xylose conversion by ΔΔXyl2” value is recorded as “around 0.4 g xylose per hr” and the “starting xylose attenuated/bioconverted by ΔΔXyl2 with co-substrate” value is recorded as 54%. For `O=Cc1ccco1` [furfural], in the assay on Y6604 (NCYC 4190), the “effect on xylose utilisation/uptake” value is listed as “completely abolished xylose uptake”. On to `O=C[C@H](O)[C@@H](O)[C@@H](O)[C@H](O)CO` [galactose], for which the “starting xylose attenuated/bioconverted by ΔΔXyl2 with co-substrate” value in the assay with ΔΔXyl2 [1] is 34%. In the assay on ΔΔXyl2 [2], the “rate of xylose conversion by ΔΔXyl2” value amounted to 0.5 g/h, the “time to complete co-substrate exhaustion” value was ≤ 7 h and the “starting xylose converted by ΔΔXyl2” value is “more than 90%”. Moreover, in the assay on ΔΔXyl2 [2] (compared to other potential co-substrates (FIG. 7G)), the “arabitol accumulation with co-substrate” value was “high amount of arabitol accumulation”. For `OCC(O)CO` [glycerol], in the assay with ΔΔXyl2 [1], the “rate of xylose conversion by ΔΔXyl2” value is “around 0.4 g xylose per hr”. Besides, in the assay with ΔΔXyl2 [2], the “starting xylose converted by ΔΔXyl2” value is listed as “around 94%”. For `COc1cc(C=O)cc(OC)c1O` [syringaldehyde], the “effect on xylose utilisation/uptake” value in the assay with Y6604 (NCYC 4190) is recorded as “delayed xylose utilisation”. On the same count and under the same terms, as for `O=C(O)/C=C/c1ccccc1` [transcinnamic acid], the entry is “delayed xylose utilisation”; as for `COc1cc(C=O)ccc1O` [vanillin], “delayed xylose utilisation”; as for hydroxyl-benzaldehyde, “delayed xylose utilisation”.
